Data reported in PubChem BioAssay (NCI).
“And” between values parts separate entries of the source, which are not always exact repeats. Identical values can stand only once.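 All cell lines were grown in 96-well plates and treated with compound for 48 hours. GI50: concentration for 50% inhibition of growth. TGI: total growth inhibition.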

Tests used:
Experiment in all cases: NCI tumour cell line growth inhibition, 48 h
RPMI-8226 leukemia = test system: RPMI-8226 leukemia
EKVX NSCLC = test system: EKVX NSCLC
CAKI-1 renal = test system: CAKI-1 renal
NCI/ADR-RES ovarian = test system: NCI/ADR-RES ovarian
HL-60(TB) leukemia = test system: HL-60(TB) leukemia
MOLT-4 leukemia = test system: MOLT-4 leukemia
SK-OV-3 ovarian = test system: SK-OV-3 ovarian
RXF 393 renal = test system: RXF 393 renal
DLD-1 colon = test system: DLD-1 colon
DMS 114 small cell lung = test system: DMS 114 small cell lung

SMILES | GI50 (RPMI-8226 leukemia) | TGI (RPMI-8226 leukemia) | GI50 (EKVX NSCLC) | TGI (EKVX NSCLC) [µM] | GI50 (CAKI-1 renal) | TGI (CAKI-1 renal) | GI50 (NCI/ADR-RES ovarian) | TGI (NCI/ADR-RES ovarian) | GI50 (HL-60(TB) leukemia) | TGI (HL-60(TB) leukemia) | GI50 (MOLT-4 leukemia) | TGI (MOLT-4 leukemia) [µM] | GI50 (SK-OV-3 ovarian) | TGI (SK-OV-3 ovarian) | GI50 (RXF 393 renal) | TGI (RXF 393 renal) | TGI (DLD-1 colon) [µM] | GI50 (DLD-1 colon) [µM] | TGI (DMS 114 small cell lung) [µM]
CCN(CC)c1ccc(C=C2C(=O)NC(=S)NC2=O)cc1 | 2.15 µM | 5.49 µM | 14 µM | 28.6 | 1.72 µM | 4.5 µM | 3.39 µM | 12.2 µM | 2.6 µM | 7.58 µM | 3.16 µM | 10.4 | 14.8 µM | 28 µM | 2.07 µM | 3.72 µM | – | – | –
CCOc1ccc(-c2nc3ccc(-c4nc5ccc(N6CCN(C)CC6)cc5[nH]4)cc3[nH]2)cc1OCC | 2.94 µM | 13.8 µM | 5.06 µM | > 100 | 2.71 µM | 17.6 µM | > 100 µM | > 100 µM | 1.16 µM | 4.7 µM | 2.75 µM | 9.76 | 2.49 µM | 9.41 µM | 1.14 µM | 2.49 µM | – | – | –
CC(C)OC(=O)OCOP(=O)(OCOC(=O)OC(C)C)C1CCCN(O)C1=O (stereo not drawn) | 0.737 µM | 14.5 µM | 3.03 µM | > 100 | 3.55 µM | > 100 µM | 2.6 µM | > 100 µM | 2.48 µM | > 100 µM | 1.34 µM | > 100 | 1.84 µM | > 100 µM | 0.316 µM | 2.88 µM | – | – | –
COc1ccc2c(c1)OCC1c3cc(OC)ccc3OC21 (stereo not drawn) | 21.5 µM | > 100 µM | 32.6 µM | > 100 | 29.5 µM | > 100 µM | 32 µM | > 100 µM | 4.93 µM | > 100 µM | 8.94 µM | 61.1 | > 100 µM | > 100 µM | 58 µM | > 100 µM | – | – | –
Nc1c2ccccc2nc2ccccc12 | 3.26 µM and 1.48 µM | 18.6 µM and 5.94 µM | 1.78 µM and 3.46 µM | – | 1.96 µM and 2.11 µM | 5.96 µM | 1.44 µM and 1.48 µM | 5.35 µM and 6.21 µM | 3.05 µM and 1.85 µM | 6.99 µM and 10 µM | 1.68 µM and 2.21 µM | 11.1 | 2.18 µM and 3.22 µM | 9.21 µM and 22 µM | 1.1 µM and 2.31 µM | 2.77 µM and 6.57 µM | – | – | –
CCCCP1(=O)C=CC(Cl)=C(C)C1 (stereo not drawn) | – | – | – | > 100 | – | – | – | – | – | > 100 µM | – | > 100 | – | – | – | > 100 µM | > 100 | – | –
CC(C)c1c(C(=O)Nc2ccccc2)c(-c2ccccc2)c(-c2ccc(F)cc2)n1CC[C@@H](O)C[C@@H](O)CC(=O)O | 16.6 µM | > 100 µM | 49.4 µM | > 100 | 11.9 µM | 32.8 µM | 40.8 µM | > 100 µM | 20.9 µM | > 96.7 µM | 28.8 µM | 99.2 | 63.7 µM | > 100 µM | 8.75 µM | 47.2 µM | – | – | –
C=C1C(=O)O[C@H]2[C@H]1CC/C(COC(=O)NCc1ccc(Cn3c(=O)sn(CCCI)c3=O)cc1)=C\CC[C@@]1(C)O[C@@H]21 | 0.899 µM | 3.57 µM | 2.09 µM | 6.77 | 1.7 µM | 3.29 µM | 28.1 µM | > 100 µM | 0.307 µM | 2.71 µM | 0.294 µM | 3.19 | 13.6 µM | 28.3 µM | 1.52 µM | 2.95 µM | – | – | –
CC(=O)Nc1ccc(/C=C/C(=O)c2sc(-n3nc(-c4ccccc4)cc3-c3ccccc3)nc2C)cc1 | > 100 µM | > 100 µM | > 100 µM | > 100 | > 100 µM | > 100 µM | – | – | > 100 µM | > 100 µM | > 100 µM | > 100 | – | – | > 100 µM | > 100 µM | > 100 | > 100 | > 100
COc1cc(C(=O)N[C@@H]2CCCN(C)C2)ccc1Nc1ncc2c(n1)N(C1CCCC1)CC(C)(C)C(=O)N2C | 1.25 µM | 19.4 µM | 1.11 µM | 24 | 0.984 µM | 19.7 µM | 0.344 µM | 16.2 µM | 0.0266 µM | 0.0788 µM | 0.0417 µM | 3.89 | 0.0484 µM | 2.42 µM | 0.0427 µM | 8.99 µM | – | – | –
CC/C(=C\c1ccc(N(C)C)cc1)c1ccncc1 | 5.13 µM | 55.2 µM | 3.29 µM | > 100 | 3.42 µM | > 100 µM | 2.38 µM | 6.09 µM | 4.06 µM | 29.3 µM | 5.09 µM | > 100 | 7.87 µM | 53.3 µM | 4.25 µM | 20.8 µM | – | – | –
N#CSc1c[nH]c2cccc(/C=C/C(=O)/C=C(O)/C=C/c3cccc4[nH]cc(SC#N)c34)c12 | 0.128 µM | 0.9 µM | 0.285 µM | 2.13 | 0.609 µM | 1.56 µM | 2.72 µM | > 33.3 µM | 0.437 µM | 1.75 µM | 0.322 µM | 1.48 | 1.32 µM | 5.23 µM | 0.326 µM | 1 µM | – | – | –
CC1(C)CCC(c2ccc(Cl)cc2)=C(CN2CCN(c3ccc(C(=O)NS(=O)(=O)c4ccc(N[C@H](CCN5CCOCC5)CSc5ccccc5)c(S(=O)(=O)C(F)(F)F)c4)cc3)CC2)C1 | 0.342 µM | 4.33 µM | 1.43 µM | 3.24 | 1.72 µM | 4.09 µM | 3.2 µM | 11.7 µM | 0.568 µM | 3.84 µM | 0.124 µM | – | 1.28 µM | 2.68 µM | 0.322 µM | 1.94 µM | – | – | –
O=C1Nc2ccc(I)cc2/C1=C/c1cc(Br)c(O)c(Br)c1 | 15.3 µM and 6.81 µM | > 100 µM | > 17.5 µM and 13.8 µM | > 84.1 | > 15.9 µM and 14.9 µM | > 25 µM and 72 µM | > 21.8 µM and 28.2 µM | > 100 µM | > 47.8 µM | > 100 µM | > 60.1 µM | > 100 | > 25 µM and 17.9 µM | > 25 µM and 47.5 µM | > 16.6 µM and 12 µM | > 25 µM and 28.3 µM | – | – | –
O=P(c1ccccc1)(c1ccccc1)C1CC=C2CCCCCC2C1 (stereo not drawn) | – | 42.7 µM | – | > 100 | – | 69.5 µM | – | – | – | 58.9 µM | – | 45.3 | – | 85.9 µM | – | 72.6 µM | – | – | 68.2
